Entries after “also recorded” stand apart in the source; their conditions may differ.
Legend:
[1] = test system: RSV; assay: RSV plaque reduction assay in HEp-2 cells; conditions: for SI (CC50/IC50): CC50 HEp-2 / anti-RSV IC50; for IC50: human respiratory syncytial virus, HEp-2, 72 h, read-out: anti-RSV activity IC50
Protocol: (§1) The extracts and the isolated compounds were tested for antiviral activity against RSV by the viral plaque reduction assay in cultures of HEp-2 cells (Table 3, Supporting Information). A tetrazolium-based cytotoxicity assay on HEp-2 cells was also performed to exclude that the anti-RSV activity was a result of general cytotoxicity. The cytotoxicity assay was complemented by microscopy observation of the compound- and extract-treated cells to detect possible cytostatic activity, such as poor cell growth and/or altered cell shape that may affect antiviral activity. […] At this stage, it is difficult to assess whether the cytostatic activity of these specific compounds contributed to the protection of cells against virus infection, and accordingly the specificity of anti-RSV action of 9 and 13 requires further investigation. An attempt was made to address this issue by testing cytotoxic activities of the most promising compounds in human embryonic lung fibroblasts (HELFs), i.e., primary cells derived from lung interstitium.
Human adenocarcinoma cells of uterine cervix (HeLa) were grown in Eagle’s minimum essential medium supplemented with 5% fetal calf serum and antibiotics. HELFs were grown in Eagle’s minimum essential medium supplemented with 5% fetal calf serum, L-glutamine, and antibiotics. […] The RSV stock was prepared and stored as described previously by Lundin et al.[50]
The RSV plaque reduction assay was performed as described previously[27],[51] with some modifications. […] Following 15 min of incubation at 37 °C in a humidified atmosphere comprising 5% CO2 (incubator), the cells were inoculated with 50–100 plaque-forming units of RSV A2. After incubation of the virus–compound mixture with cells for 2.5 h in the CO2 incubator, the inoculum was removed and 750 μL of 1% methylcellulose solution in DMEM-M comprising the same concentration of test compound/extract was added and left for a further 3 days in the CO2 incubator. The cells were stained with a 1% solution of crystal violet, and the viral plaques were counted under a microscope.

[2] = in vitro; conditions: human
Protocol: as §1
(§2) HEp-2 cells were cultivated in Dulbecco’s modified Eagle’s medium (DMEM) supplemented with 8% fetal calf serum and 292 μg/mL of L-glutamine. Human adenocarcinoma cells of uterine cervix (HeLa) were grown in Eagle’s minimum essential medium supplemented with 5% fetal calf serum and antibiotics. HELFs were grown in Eagle’s minimum essential medium supplemented with 5% fetal calf serum, L-glutamine, and antibiotics. The A2 strain of RSV (ATCC VR-1540) was used. The RSV stock was prepared and stored as described previously by Lundin et al.[50] In some experiments, strain HGP of HRV-2 (ATCC, VR-482) was used.
(§3) The tetrazolium-based cytotoxicity assay using a CellTiter 96 Aqueous One solution reagent (Promega) was performed for the test extracts and isolated compounds in HEp-2, HELFs, and HeLa cells as described previously.[50]
(§4) Figure S130. Cell viability in presence of the crude extracts of leaves and root heart of Milletia oblata ssp teitensis. The HEp-2 cells were incubated for 3 days at 37 °C with specific concentration of test extract. After addition of the tetrazolium (MTS)-based reagent the absorbance was recorded at 490 nm. The results are expressed as a percentage of absorbance developed in extract treated cells relative to DMSO treated controls. […]

[3] = test system: HEp-2 cells; assay: Microscopic recording of cytostatic activity in compound-treated HEp-2 cells; conditions: microscopy, PCP poor cell proliferation, ACS altered cell shape, PCS poor cell staining, concentration(s) at which seen in brackets
Protocol: as §1

[4] = test system: human embryonic lung fibroblasts (HELFs); assay: Tetrazolium-based cytotoxicity assay in human embryonic lung fibroblasts; conditions: primary lung fibroblasts
Protocol: as §1, §2, §3

[5] = as above; conditions: human
Protocol: as §1, §2, §3

[6] = test system: HEp-2 cells; assay: Tetrazolium-based cytotoxicity assay in HEp-2 cells; conditions: read-out: cytotoxicity CC50; HEp-2 cells, tetrazolium-based assay
Protocol: as §1, §2, §3, §4

[7] = test system: HRV-2; assay: Anti-HRV-2 tetrazolium-based cell protection assay in HeLa cells; design: species or system human rhinovirus 2 (strain HGP)
[8] = Tetrazolium-based cytotoxicity assay in HeLa cells; format: cell-based; conditions: human, 34 °C
Protocol: Figure S133. Anti-HRV-2 (IC50) of 3 of Milletia oblata ssp teitensis in HeLa cells. In the cell protection against HRV assay, the cells were incubated in the presence of specific concentrations of test compound for 3 h, then inoculated with HRV and incubated for further 3 days at 34°C. Two separate experiments were performed, and the cell protection against HRV-2 was calculated according to formula described in the Method section. In the cell viability assay, the cells were incubated with test compound for 3 days at 34°C. For further explanations see legend to Figure S130.
Table S1. Anti-RSV activity, cytotoxicity for HEp-2 cells, and selectivity indices (SI) of Milletia oblata extracts. For explanations see legend to Table 3.
Compound/extract Anti-RSV activity Cytotoxicity SI […]
Root wood extract 3.4 66 PCS (8 µg/mL) 19.4
(1 picture or pasted object on this page, not shown here)

[9] = human embryonic lung fibroblasts (HELFs), primary cells
[10] = cytotoxicity CC50, HEp-2 cells, tetrazolium-based assay
[11] = HEp-2 cells, cytotoxicity CC50, HEp-2 cells, tetrazolium-based assay

COc1cc2c(cc1OC)[C@]1(O)C(=O)c3ccc4c(c3O[C@@H]1CO2)C=CC(C)(C)O4 [Compound 9, tephrosin]
SI (CC50/IC50) [1]: 15.6 | IC50 [1]: 0.8 µM | CC50 at 3 days [2]: 12.5 µM | cytotoxicity: cytostatic activity [3]: cytostatic activity at concentrations close to their IC50 values; also recorded: PCS (0.8 and 4.0 μM)

CC(C)=CCOc1ccc(-c2coc3c4c(cc(O)c3c2=O)OC(C)(C)C=C4)cc1 [Compound 14, 4′-prenyloxyderrone]
SI (CC50/IC50) [1]: >10 | IC50 [1]: 10 µM | cytotoxicity (in words) [4]: low cytotoxicity | CC50 [5, 9]: > 100 µM | cytotoxicity: cytostatic activity [3]: PCS (100.0 μM)

COc1ccc2c(c1)O[C@@H]1COc3c(cc(OC)c4c3OCO4)[C@@H]1C2=O [Compound 1, (6aS,12aS)-2,9-dimethoxy-3,4-methylenedioxyrotenoid]
SI (CC50/IC50) [1]: 1.0 | IC50 [1]: > 100 µM | CC50 [2, 10]: > 100 µM

COc1ccc2c(c1)O[C@@H]1COc3c(cc(OC)c4c3OCO4)[C@]1(O)C2=O [Compound 7, oblarotenoid D]
SI (CC50/IC50) [1]: 3.8 | IC50 [1]: 1.8 µM | CC50 [2, 10]: 6.7 µM

CC(C)=CCOc1ccc(-c2coc3c4c(ccc3c2=O)OC(C)(C)C=C4)cc1 [Compound 13, isoerythrin-A-4′-prenyl ether]
SI (CC50/IC50) [1]: >47.6 | IC50 [1]: 2.1 µM | CC50 at 3 days [2, 11]: > 100 µM | CC50 [5, 9]: 9 µM | cytotoxicity: cytostatic activity [3]: cytostatic activity at concentrations close to their IC50 values; also recorded: PCS (4.0, 20.0, and 100.0 μM)

CC1(C)C=Cc2c(ccc(C(=O)/C=C/c3ccc(O)cc3)c2O)O1 [Compound 19, isobavachromene]
SI (CC50/IC50) [1]: <2.5 | IC50 [1]: > 0.8 µM | CC50 at 3 days [2, 11]: 2 µM

COc1cc2c(cc1-c1coc3cc(O)ccc3c1=O)OCO2 [Compound 17, maximaisoflavone G]
SI (CC50/IC50) [1]: 1.0 | IC50 [1]: > 100 µM | CC50 at 3 days [2, 11]: > 100 µM

COc1ccc2c(=O)c(-c3cc(OC)c4c(c3OC)OCO4)coc2c1 [Compound 12, 7,2′,5′-trimethoxy-3′,4′-methylenedioxyisoflavone]
SI (CC50/IC50) [1]: 1.0 | IC50 [1]: > 100 µM | CC50 at 3 days [2, 11]: > 100 µM

COc1ccc2c(c1)O[C@@H]1COc3cc4c(cc3[C@]1(O)C2=O)OCO4 [Compound 6, oblarotenoid A]
SI (CC50/IC50) [1]: 35.7 | IC50 [1]: 1.4 µM | CC50 [6]: 50 µM | CC50 [2, 10]: > 26.5 µM | CC50 [5]: 1.3 µM | cytotoxicity: cytostatic activity [3]: PCS (20.0 μM)

NC(=O)c1ncn([C@@H]2O[C@H](CO)[C@@H](O)[C@H]2O)n1 [ribavirin, reference compound]
IC50 [1]: 10.6 µM | CC50 at 3 days ([2]; cytotoxicity CC50): > 100 µM

COc1cc2c(cc1-c1coc3c4c(c(OC)cc3c1=O)OC(C)(C)C=C4)OCO2 [Compound 11, ichthynone]
SI (CC50/IC50) [1]: 11.4 | IC50 [1]: 8 µM | cytotoxicity (in words) [4]: low cytotoxicity | CC50 [5, 9]: > 100 µM | cytotoxicity: cytostatic activity [3]: PCS (20.0 μM)

COc1cc2c(cc1OC)C(=O)[C@@]1(O)c3cc4c(cc3OC[C@H]1O2)OCO4 [Compound 2, (6aR,12aR)-9,10-dimethoxy-2,3-methylenedioxy-12a-hydroxyrotenoid]
SI (CC50/IC50) [1]: 1.0 | IC50 [1]: > 100 µM | CC50 [2, 10]: > 100 µM

COc1ccc2c(=O)c3c(oc2c1)COc1cc2c(cc1-3)OCO2 [Compound 3, 9-methoxy-2,3-methylenedioxy-6a-2a-dehydrorotenoid]
SI (CC50/IC50) [1]: 4.1 | IC50 [1]: 22 µM | CC50 at 3 days [2, 11]: 90 µM | SI ([7]; CC50 HeLa / anti-HRV-2 IC50): 11.4 | IC50 ([7]; Rhinovirus A, HRV2, 72 h, protection of HeLa cells against HRV-2 infection, 3 days, 34 °C): 4.2 µM | cytotoxicity (in words) [4]: low cytotoxicity | CC50 [5, 9]: > 100 µM | CC50 at 3 days [8]: 48 µM

COc1ccc2c(=O)c(-c3cc4c(cc3OC)OCO4)coc2c1 [Compound 15, aglycuneatin methyl ether]
SI (CC50/IC50) [1]: 6.5 | IC50 [1]: 10 µM | CC50 at 3 days [2, 11]: 65 µM | CC50 [5, 9]: 47.1 µM | cytotoxicity: cytostatic activity [3]: PCS (20.0 μM)

COc1c(O[C@@H]2O[C@H](CO[C@H]3O[C@H](C)[C@@H](O)[C@H](O)[C@@H]3O)[C@@H](O[C@@H]3O[C@H](CO[C@H]4O[C@H](C)[C@@H](O)[C@H](O)[C@@H]4O)[C@@H](O)[C@H](O)[C@H]3O)[C@H](O)[C@H]2O)cc2c(=O)c(-c3ccc4c(c3)OCO4)coc2c1OC [Compound 4, isoplatycarpanetin-6-O-β-glucosyl-(7″→1‴′)-α-rhamnosyl-(4″→1‴)-β-glucosyl-(7‴→1‴′)-α-rhamnoside]
SI (CC50/IC50) [1]: 1.0 | IC50 [1]: > 100 µM | CC50 at 3 days [2, 11]: > 100 µM

COc1ccc2c(c1)O[C@@H]1COc3cc(OC)c(OC)cc3[C@]1(O)C2=O [Compound 8, 12a-hydroxymunduserone]
SI (CC50/IC50) [1]: 28.0 | IC50 [1]: 1.5 µM | CC50 [6]: 42 µM | CC50 [2, 10]: > 26.5 µM | CC50 [5]: 4.8 µM | cytotoxicity: cytostatic activity [3]: PCS (20.0 μM)

COc1cc2c(cc1OC)[C@@H]1C(=O)c3ccc4c(c3O[C@@H]1CO2)C=CC(C)(C)O4 [Compound 10, deguelin]
IC50 [1]: 0.4 µM | CC50 [6]: 26.5 µM | CC50 [2, 10]: > 26.5 µM | CC50 [5]: 0.3 µM | cytotoxicity: cytostatic activity [3]: PCS (4.0 μM)

CC1(C)C=Cc2c(ccc3c(=O)c(-c4ccc5c(c4)OCO5)coc23)O1 [Compound 16, calopogonium isoflavone B]
SI (CC50/IC50) [1]: 1.0 | IC50 [1]: > 100 µM | CC50 at 3 days [2, 11]: > 100 µM

COc1ccc2c(c1)O[C@@H]1COc3cc4c(cc3[C@@H]1C2=O)OCO4 [Compound 5, oblarotenoid C]
SI (CC50/IC50) [1]: >1.9 | IC50 [1]: 53 µM | CC50 [2, 10]: > 100 µM

Source: publication PMC11061832, “Antiviral Rotenoids and Isoflavones Isolated from Millettiaoblata ssp. teitensis” (Journal of Natural Products, 2024)
